According to patent US20250230193A1, “CYCLIC COMPOUND HAVING SELECTIVE KRAS INHIBITORY EFFECT ON HRAS AND NRAS” (CHUGAI SEIYAKU KABUSHIKI KAISHA, priority 2022, published 2025):
Where a SMILES comes first, the peptide text is derived from it. Bridges are numbered along the chain shown (N, C = ends). [ ]: non-standard residue; d: D form. The star is where a group is joined. hPhe(3-Cl-4-CF3) = N[C@@H](CCc1ccc(C(F)(F)F)c(Cl)c1)C(=O)O; NPrPhe(4-CF3) = CCCN[C@@H](Cc1ccc(C(F)(F)F)cc1)C(=O)O; NMeGly(cPent) = CN[C@H](C(=O)O)C1CCCC1; Hyp = O=C(O)[C@@H]1C[C@@H](O)CN1; NMeD = CN[C@@H](CC(=O)O)C(=O)O; NMeL = CN[C@@H](CC(C)C)C(=O)O; Morpholide = C1CN(*)CCO1; Ac5c = NC1(C(=O)O)CCCC1; NEtG = CCNCC(=O)O; Sar = CNCC(=O)O

Key:
[1] = molecular target: GDP-bound NRAS wild-type protein (Homo sapiens, UniProt P01111); assay: Binding to NRAS by surface plasmon resonance (SPR), Single Cycle Kinetics
[2] = molecular target: GDP-bound HRAS wild-type protein (Homo sapiens, UniProt P01112); assay: Binding to HRAS by surface plasmon resonance (SPR), Single Cycle Kinetics
[3] = KD ratio NRAS/KRAS, SPR, GDP-bound wild-type proteins
[4] = KD ratio HRAS/KRAS, SPR, GDP-bound wild-type proteins
[5] = KD ratio, GDP-bound NRAS wild-type vs GDP-bound KRAS wild-type, SPR
[6] = KD ratio, GDP-bound HRAS wild-type vs GDP-bound KRAS wild-type, SPR

Chain of GDP-bound NRAS wild-type protein (P01111 whole entry): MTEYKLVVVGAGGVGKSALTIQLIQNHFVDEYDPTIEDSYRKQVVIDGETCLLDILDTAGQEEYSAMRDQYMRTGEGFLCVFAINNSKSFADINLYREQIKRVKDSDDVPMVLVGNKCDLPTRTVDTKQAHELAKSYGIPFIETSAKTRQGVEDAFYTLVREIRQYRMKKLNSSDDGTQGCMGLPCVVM
Chain of GDP-bound HRAS wild-type protein (P01112 whole entry): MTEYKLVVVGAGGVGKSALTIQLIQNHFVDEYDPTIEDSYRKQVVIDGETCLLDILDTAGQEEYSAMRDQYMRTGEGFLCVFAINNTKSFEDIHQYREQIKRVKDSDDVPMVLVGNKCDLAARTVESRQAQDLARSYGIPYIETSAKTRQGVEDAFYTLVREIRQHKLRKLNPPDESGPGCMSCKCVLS

Compound: CCC[C@H]1C(=O)N[C@@H](C2CCCCC2)C(=O)N(C)CC(=O)N(C)[C@H]2C/C=C\CCN(C2=O)[C@@H](Cc2ccc(C(F)(F)F)cc2)C(=O)N(C)CC(=O)N[C@@H](CCc2ccc(C(F)(F)F)c(Cl)c2)C(=O)N2C[C@H](OCC)C[C@H]2C(=O)NC2(CC(C)(C)C2)C(=O)N(C)[C@@H]([C@@H](C)CC)C(=O)N(C)[C@H](C(=O)N(C)C)CC(=O)N1C [PP3015]
- NRAS/KRAS (ratio of KD value with respect to GDP-bound NRAS wild-type protein to KD value with respect to KRAS) [1, 3]: AA (a compound having 20 or more is denoted as AA)
- HRAS/KRAS (ratio of KD value with respect to GDP-bound HRAS wild-type protein to KD value with respect to KRAS) [2, 4]: A (a compound having 10 or more and less than 20 is denoted as A)

Compound: CCC[C@H]1C(=O)N[C@@H](C2CCCC2)C(=O)N(C)CC(=O)N(C)[C@H]2C/C=C\CCN(C2=O)[C@@H](Cc2ccc(C)cc2)C(=O)N(C)CC(=O)N[C@@H](CCc2cc(F)c(C(F)(F)F)c(F)c2)C(=O)N2C[C@H](OCC)C[C@H]2C(=O)NC2(CC(C)(C)C2)C(=O)N(C)[C@@H](CC(C)(C)C)C(=O)N(C)[C@H](C(=O)N(C)C)CC(=O)N1C [PP2989]
- NRAS/KRAS (ratio of KD value with respect to GDP-bound NRAS wild-type protein to KD value with respect to KRAS) [1, 3]: AA (a compound having 20 or more is denoted as AA)
- HRAS/KRAS (ratio of KD value with respect to GDP-bound HRAS wild-type protein to KD value with respect to KRAS) [2, 4]: A (a compound having 10 or more and less than 20 is denoted as A)

Compound: CCCN1CC(=O)N(C)[C@H]2C/C=C\CCN(C2=O)[C@@H](Cc2ccc(C(F)(F)F)cc2)C(=O)N(C)CC(=O)N[C@@H](CCc2cc(F)c(C(F)(F)F)c(F)c2)C(=O)N2C[C@H](OCC)C[C@H]2C(=O)NC2(CCC2)C(=O)N(C)[C@@H](C2CCCC2)C(=O)N(C)[C@H](C(=O)N(C)C)CC(=O)N(C)[C@@H](CC)C(=O)N[C@@H]([C@@H](C)CC)C1=O [PP1053]
- NRAS/KRAS (ratio of KD value with respect to NRAS to KD value with respect to KRAS) [1, 5]: A (a compound having 10 or more and less than 20 is denoted as A)
- HRAS/KRAS (ratio of KD value with respect to HRAS to KD value with respect to KRAS) [2, 6]: A (a compound having 10 or more and less than 20 is denoted as A)

Compound: CCCN1C(=O)CN(C)C(=O)CN(CC)C(=O)[C@H]([C@@H](C)CC)NC(=O)[C@H](CC(C)C)N(C)C(=O)C[C@@H](C(=O)N2CCOCC2)N(C)C(=O)[C@H](C2CCCC2)N(C)C(=O)C2(CCCC2)NC(=O)[C@@H]2C[C@@H](OC)CN2C(=O)[C@H](CCc2ccc(C(F)(F)F)c(Cl)c2)NC(=O)CN(C)C(=O)[C@@H]1Cc1ccc(C(F)(F)F)cc1 [PP0296] ([NMeL]I[NEtG][Sar][NPrPhe(4-CF3)][Sar][hPhe(3-Cl-4-CF3)][Hyp](Me)[Ac5c][NMeGly(cPent)][NMeD]-Morpholide; lactam N-11)
- NRAS/KRAS (ratio of KD for GDP-bound NRAS wild-type to KD for KRAS) ([1]; KD ratio NRAS/KRAS, SPR): B (a compound having 3 or more and less than 10 is denoted as B)
- HRAS/KRAS (ratio of KD for GDP-bound HRAS wild-type to KD for KRAS) ([2]; KD ratio HRAS/KRAS, SPR): C (A compound having a KD ratio of 0.1 or more and less than 3 is denoted as C)

Compound: CCO[C@@H]1C[C@H]2C(=O)NC3(CC(C)(C)C3)C(=O)N(C)[C@@H](C3CCCC3)C(=O)N(C)[C@H](C(=O)N(CC)CC)CC(=O)N(C)[C@@H](CC)C(=O)N[C@@H]([C@@H](C)CC)C(=O)N(C)CC(=O)N(C)[C@H]3C/C=C\CCN(C3=O)[C@@H](Cc3ccc(C)cc3)C(=O)N(C)CC(=O)N[C@@H](CCc3ccc(C(F)(F)F)c(Cl)c3)C(=O)N2C1 [PP1883]
- NRAS/KRAS (ratio of KD value for NRAS to KD value for KRAS) [1, 5]: A (a compound having 10 or more and less than 20 is denoted as A)
- HRAS/KRAS (ratio of KD value for HRAS to KD value for KRAS) [2, 6]: A (a compound having 10 or more and less than 20 is denoted as A)

Compound: CCCC[C@H]1C(=O)N[C@@H]([C@@H](C)CC)C(=O)N(C)CC(=O)N(C)[C@H]2C/C=C\CCN(C2=O)[C@@H](Cc2ccc(C(F)(F)F)cc2)C(=O)N(C)CC(=O)N[C@@H](CCc2cc(F)c(C(F)(F)F)c(F)c2)C(=O)N2C[C@H](OCC)C[C@H]2C(=O)NC2(CC(C)(C)C2)C(=O)N(C)[C@@H](C2CCCC2)C(=O)N(C)[C@H](C(=O)N(C)CC)CC(=O)N1C [PP2806]
- NRAS/KRAS (ratio of KD value with respect to GDP-bound NRAS wild-type protein to KD value with respect to KRAS) ([1]; KD ratio NRAS/KRAS, class symbols): A (a compound having 10 or more and less than 20 is denoted as A)
- HRAS/KRAS (ratio of KD value with respect to GDP-bound HRAS wild-type protein to KD value with respect to KRAS) ([2]; KD ratio HRAS/KRAS, class symbols): A (a compound having 10 or more and less than 20 is denoted as A)

Compound: CC[C@H](C)[C@@H]1NC(=O)[C@H](COC)N(C)C(=O)C[C@@H](C(=O)N2CCOCC2)N(C)C(=O)[C@H](C2CCCC2)N(C)C(=O)C2(CCC2)NC(=O)[C@@H]2CCCN2C(=O)[C@H](CCc2cc(F)c(C(F)(F)F)c(F)c2)NC(=O)CN(C)C(=O)[C@H](Cc2ccc(C(F)(F)F)cc2)N2CCCCC[C@@H](C2=O)N(C)C(=O)CNC1=O [PP0860]
- NRAS/KRAS (ratio of KD value with respect to NRAS to KD value with respect to KRAS) [1, 5]: B (a compound having 3 or more and less than 10 is denoted as B)
- HRAS/KRAS (ratio of KD value with respect to HRAS to KD value with respect to KRAS) [2, 6]: B (a compound having 3 or more and less than 10 is denoted as B)
